For this experiment, the system named is T. cruzi-infected H9C2 cardiomyocytes, high-content imaging. Put plainly: anti-T. cruzi activity in infected cardiomyocytes – imaging, H9C2 host cardiomyocytes, host toxicity (AID 1159565).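 Also: infected cells incubated 72 h after plating.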
Setting [1] is: measured here: H9C2 host cell toxicity.
[2] abbreviates: measured here: amastigotes per cell.

Molecules are shown by their SMILES. Activity calls are given as the source filed them. No rule for the calls is given here.

As to `COc1ccc(Nc2nc(-c3ccccn3)cc(N3CCCC(O)C3)n2)cc1` (centres undefined), the IC50 is 5 µM. The same molecule had an IC50 under setting [1] of 4 µM. The molecule also gave an IC50 under setting [2] of 7.9 µM.

For the molecule `O=C(CN1CCN(c2ccccn2)CC1)Nc1cc(S(=O)(=O)N2CCCCCC2)ccc1Cl`, the IC50 is 7.9 µM. The molecule also showed an IC50 under setting [1] greater than 50 µM. Besides, the IC50 under setting [2] was determined as 6.3 µM.

Regarding `CCc1c(C)nc(-n2nc(C)cc2NC(=O)COc2ccccc2F)[nH]c1=O`, the IC50 was 0.63 µM. Under setting [1], this molecule returned an IC50 of 2.5 µM. Under setting [2], this molecule came in with an IC50 of 0.16 µM.

Regarding `CN1CCN(c2nc(-c3ccc(Cl)cc3)c3c(N)n(C)nc3n2)CC1`, the IC50 was 1 µM. Further, the IC50 under setting [1] was found to be 25 µM. This molecule also yielded an IC50 under setting [2] of 0.79 µM.

Take `NC(=O)c1ncc(N[C@@H]2CCCNC2)nc1Nc1cccc(Cl)c1`: the IC50 is 0.4 µM. This molecule also registered an IC50 under setting [1] of 1.3 µM. Under setting [2], this molecule gave an IC50 of 0.25 µM.

As to `COc1ccc(-c2ccc3nnc(-c4ccc(O)c(OC)c4)n3c2)cn1`, the IC50 is 3.2 µM. Under setting [1], this molecule had an IC50 greater than 50 µM. The same molecule showed an IC50 under setting [2] of 2 µM.

As to `Cc1ccc(-c2csc(NC(=O)C=Cc3ccc(S(=O)(=O)N4CCOCC4)cc3)n2)o1`, the IC50 was 10 µM. The same molecule had an IC50 under setting [1] of 32 µM. For the same molecule, under setting [2], the IC50 was 10 µM.

On to `CN(CC1CCCO1)S(=O)(=O)c1ccc(C(=O)Nc2nc(-c3ccccn3)cs2)cc1` (centres undefined), for which the IC50 was 2 µM. This molecule also showed an IC50 under setting [1] of 20 µM. Under setting [2], this molecule returned an IC50 of 1.3 µM.

As to `Cn1nc(C(=O)N2CCc3ccccc32)c2c1CCS(=O)(=O)C2`, the IC50 is 13 µM. The molecule also yielded an IC50 under setting [1] greater than 50 µM. Moreover, under setting [2], the IC50 came to 7.9 µM.

`c1ccc(Nc2nc(-c3ccccn3)cc(N3CCOCC3)n2)cc1`: the IC50 is > 50 µM (inactive). The same molecule registered an IC50 under setting [1] of 0.63 µM. Under setting [2], the IC50 turned out to be 25 µM.

As for `Cc1ccc(Nc2nc(C3CCCN3Cc3ccn[nH]3)cs2)nc1` (centres undefined), the IC50 is 2 µM. The molecule also displayed an IC50 under setting [1] of 10 µM. The molecule further returned an IC50 under setting [2] of 2 µM.

Turning to `Cc1ccc2c(c1)SC(C(=O)Nc1n[nH]c(-c3ccccn3)n1)C2` (centres undefined), the IC50 is 7.9 µM. Further, the IC50 under setting [1] was greater than 50 µM. Under setting [2], this molecule gave an IC50 of 6.3 µM.

For `OC1CCC(Nc2nccc(-c3sc(C4CCOCC4)nc3-c3ccc(F)c(F)c3)n2)CC1` (centres undefined), the IC50 was 0.32 µM. Moreover, under setting [1], the IC50 turned out to be 32 µM. This molecule yielded an IC50 under setting [2] of 0.2 µM.

Take `COc1ccc(NS(=O)(=O)c2cc(NC(=O)Cc3ccc(C)cc3)ccc2N2CCOCC2)cc1`: the half-maximal inhibitory concentration (IC50) was 5 µM. Moreover, under setting [1], the IC50 is greater than 50 µM. The IC50 under setting [2] was found to be 2.5 µM.

`CC(C)(C)CC(=O)NCc1noc(COc2ccccc2)n1`: the IC50 is 2.5 µM. Moreover, the IC50 under setting [1] was greater than 50 µM. The IC50 under setting [2] was 2.5 µM.

`Cc1cc2ncn(-c3ccc([N+](=O)[O-])cc3C#N)c2cc1C`: the IC50 is 2 µM. Moreover, under setting [1], the IC50 is greater than 50 µM. This molecule also came in with an IC50 under setting [2] of 0.79 µM.

Take `O=C(CC1(O)C(=O)N(Cc2ccccc2)c2ccc(Br)cc21)c1cccnc1` (centres undefined): the IC50 is 25 µM. In addition, under setting [1], the IC50 was determined as 3.2 µM. The same molecule displayed an IC50 under setting [2] of 20 µM.

Consider `c1cc(-c2ncc(-c3ccn[nH]3)s2)ccn1`, for which the IC50 was 0.25 µM. Also, the IC50 under setting [1] is greater than 50 µM. The same molecule yielded an IC50 under setting [2] of 0.25 µM.

With `Cc1ccc(NC(=O)c2ccnc(N3CCCC3)c2)cc1-c1ccsc1C(N)=O`, the IC50 was 13 µM. The molecule further gave an IC50 under setting [1] greater than 50 µM. The molecule further gave an IC50 under setting [2] of 7.9 µM.

On to `COCCn1c(-c2ccccc2)cnc1NCc1ccccc1OC`, for which the IC50 is 16 µM. This molecule had an IC50 under setting [1] greater than 50 µM. This molecule also returned an IC50 under setting [2] of 6.3 µM.

Turning to `CC(C)CC(=O)Nc1cc(C2CC2)nn1-c1nc2c(c(=O)[nH]1)CCCC2`, the IC50 was 0.5 µM. The same molecule gave an IC50 under setting [1] of 2.5 µM. The molecule also came in with an IC50 under setting [2] of 0.13 µM.

Turning to `COc1ccc(S(=O)(=O)Nc2ccc(CN3CCN(C(=O)c4cccc(C#N)c4)CC3)cc2)cc1`, the IC50 was 1 µM. The half-maximal inhibitory concentration (IC50) under setting [1] was greater than 50 µM. This molecule also displayed an IC50 under setting [2] of 0.79 µM.

As for `CCOc1ccccc1C(=O)Nc1nnc(-c2ccc3c(c2)OCO3)s1`, the IC50 was 0.079 µM. This molecule came in with an IC50 under setting [1] greater than 50 µM. The molecule also had an IC50 under setting [2] of 0.063 µM.

On to `Cc1nn2c(NCCCO)c3c(nc2c1-c1cccs1)CCC3`, for which the IC50 was 50 µM. Under setting [1], this molecule came in with an IC50 greater than 50 µM. Under setting [2], this molecule showed an IC50 of 5 µM.

In the case of `NC(=O)c1cc(F)ccc1Nc1nc(NC2CCC(O)CC2)ncc1Br` (centres undefined), the IC50 is 2 µM. Under setting [1], the IC50 is 0.5 µM. Further, the IC50 under setting [2] was determined as 0.79 µM.

Regarding `Cc1ccc2sc(NC(=O)Cn3cnc([N+](=O)[O-])n3)nc2c1`, the IC50 was 4 µM. Also, under setting [1], the IC50 is greater than 50 µM. The same molecule yielded an IC50 under setting [2] of 0.5 µM.

Regarding `CCCCNc1nccc(-c2c(-c3ccc(F)cc3)nn3c(N4CCOCC4)cccc23)n1`, the IC50 is 3.2 µM. This molecule also came in with an IC50 under setting [1] greater than 50 µM. The molecule further gave an IC50 under setting [2] of 1 µM.

As for `O=c1oc2ccccc2n1C1CCN(Cc2ccccc2-c2cccnc2)CC1`, the IC50 is 0.32 µM. Besides, under setting [1], the IC50 was greater than 50 µM. In addition, the IC50 under setting [2] stood at 0.4 µM.

For the origin of these results see PubChem BioAssay AID1159565 (GlaxoSmithKline (GSK), 2015).
